From US9701689B2, “Substituted pyridines and pyridazines as CCR10 receptor inhibitors” (KYOWA HAKKO KIRIN CO., LTD., priority 2012, dated 2017)

Target: T1, human CCR10 (Homo sapiens, UniProt P46092)
T1 construct: expressed in transfected cells; host or cells: KJMGER8 cells (Namalwa cell-derived line), beta-estradiol-induced; hCCR10G16 cells
T1 sequence (P46092 1-362): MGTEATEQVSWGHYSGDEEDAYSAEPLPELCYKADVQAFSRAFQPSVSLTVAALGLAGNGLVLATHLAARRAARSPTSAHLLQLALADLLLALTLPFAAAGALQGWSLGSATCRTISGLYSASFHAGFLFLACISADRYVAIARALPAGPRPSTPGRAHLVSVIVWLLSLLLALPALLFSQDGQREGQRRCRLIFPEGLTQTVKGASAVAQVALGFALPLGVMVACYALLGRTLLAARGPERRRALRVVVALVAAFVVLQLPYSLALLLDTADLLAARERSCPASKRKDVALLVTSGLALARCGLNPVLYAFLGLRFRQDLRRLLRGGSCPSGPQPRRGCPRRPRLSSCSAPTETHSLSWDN
Experiment: CCR10 antagonistic effect: calcium assay of human CCR10 (CTACK-induced increase of intracellular calcium in hCCR10G16 cells)
Type: cell-based
Settings: at a concentration of not more than 1000 nmol/L; human CCR10-expressing hCCR10G16 cells, 300 nmol/L CTACK added; read-out: inhibition of increase in the calcium ion concentration
Summary of the method: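 Inhibition of CTACK-evoked calcium flux (max minus min Fluo-3 fluorescence over ~5 min, FDSS) was calculated against control in β-estradiol-induced human CCR10/Gα16 KJMGER8 cells, after 30 min compound preincubation at 37 °C; CTACK added from a 300 nmol/L solution.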

Row | SMILES | inhibition at up to 1 µM [%]
1 | Cc1ccccc1Nc1c(C(=O)N2CCC(c3ccc(F)cc3)CC2)cnc(S(N)(=O)=O)c1Cl [Compound 33, 3-chloro-5-[4-(4-fluorophenyl)piperidine-1-carbonyl]-4-(o-tolylamino)pyridine-2-sulfonamide] | ≥ 50
2 | Cc1c(S(=O)(=O)Nc2ccon2)ncc(C(=O)N2CCC(c3ccc(F)cc3)CC2)c1NC1CCCCC1 [Compound 215, 4-(cyclohexylamino)-5-[4-(4-fluorophenyl)piperidine-1-carbonyl]-N-(isoxazol-3-yl)-3-methylpyridine-2-sulfonamide] | ≥ 50
3 | CN(Nc1c(C(=O)N2CCC(c3ccc(F)cc3)CC2)cnc(S(N)(=O)=O)c1Cl)c1ccccc1 [Compound 282, 3-chloro-5-[4-(4-fluorophenyl)piperidine-1-carbonyl]-4-(2-methyl-2-phenylhydrazinyl)pyridine-2-sulfonamide] | ≥ 50
4 | COCCNS(=O)(=O)c1cc(Nc2ccc(F)cc2C)c(C(=O)N2CCC(c3ccc(F)cc3)CC2)cn1 [Compound 112, 4-(4-fluoro-2-methylphenylamino)-5-[4-(4-fluorophenyl)piperidine-1-carbonyl]-N-(2-methoxyethyl)pyridine-2-sulfonamide] | ≥ 50
5 | Cc1cc(Nc2c(C(=O)N3CCC(c4ccc(F)cc4)CC3)cnc(S(N)(=O)=O)c2Cl)ccc1F [Compound 31, 3-chloro-4-(4-fluoro-3-methylphenylamino)-5-[4-(4-fluorophenyl)piperidine-1-carbonyl]pyridine-2-sulfonamide] | ≥ 50
6 | Cc1cccc(Nc2c(C(=O)N3CCC(c4ccc(F)cc4)CC3)cnc(S(=O)(=O)Nc3ccon3)c2C)c1F [Compound 264, 4-(2-fluoro-3-methylphenylamino)-5-[4-(4-fluorophenyl)piperidine-1-carbonyl]-N-(isoxazol-3-yl)-3-methylpyridine-2-sulfonamide] | ≥ 50
7 | Cc1c(S(=O)(=O)Nc2ccon2)ncc(C(=O)N2CCC(c3ccc(F)cc3)CC2)c1Nc1ccc2c(c1)COC2 [Compound 247, 4-(1,3-dihydroisobenzofuran-5-ylamino)-5-[4-(4-fluorophenyl)piperidine-1-carbonyl]-N-(isoxazol-3-yl)-3-methylpyridine-2-sulfonamide] | ≥ 50
8 | NS(=O)(=O)c1ncc(C(=O)N2CCC(c3ccc(F)cc3)CC2)c(Nc2c(F)cccc2F)c1Cl [Compound 182, 3-chloro-4-(2,6-difluorophenylamino)-5-[4-(4-fluorophenyl)piperidine-1-carbonyl]pyridine-2-sulfonamide] | ≥ 50
9 | Cc1c(S(=O)(=O)Nc2ccon2)ncc(C(=O)N2CCC(c3ccc(F)cc3)CC2)c1Nc1ccc(F)cc1Cl [Compound 273, 4-(2-chloro-4-fluorophenylamino)-5-[4-(4-fluorophenyl)piperidine-1-carbonyl]-N-(isoxazol-3-yl)-3-methylpyridine-2-sulfonamide] | ≥ 50
10 | Cc1cccc(Nc2cc(S(N)(=O)=O)ncc2C(=O)N2CCC(c3ccc(F)cc3)CC2)c1C [Compound 65, 4-(2,3-dimethylphenylamino)-5-[4-(4-fluorophenyl)piperidine-1-carbonyl]pyridine-2-sulfonamide] | ≥ 50
11 | NS(=O)(=O)c1cc(Nc2ccc(Br)cc2F)c(C(=O)N2CCC(c3ccc(F)cc3)CC2)cn1 [Compound 91, 4-(4-bromo-2-fluorophenylamino)-5-[4-(4-fluorophenyl)piperidine-1-carbonyl]pyridine-2-sulfonamide] | ≥ 50
12 | CNS(=O)(=O)c1cc(Nc2ccc(F)cc2C)c(C(=O)N2CCC(c3ccc(F)cc3)CC2)cn1 [Compound 111, 4-(4-fluoro-2-methylphenylamino)-5-[4-(4-fluorophenyl)piperidine-1-carbonyl]-N-methylpyridine-2-sulfonamide] | ≥ 50
13 | Cc1c(S(N)(=O)=O)ncc(C(=O)N2CCN(c3ccc(F)cc3)C(=O)C2)c1NCc1ccccc1 [Compound 253, 4-(benzylamino)-5-[4-(4-fluorophenyl)-3-oxopiperazine-1-carbonyl]-3-methylpyridine-2-sulfonamide] | ≥ 50
14 | Cc1c(Nc2cc(S(N)(=O)=O)ncc2C(=O)N2CCC(c3ccc(F)cc3)CC2)cccc1C(F)(F)F [Compound 61, 5-[4-(4-fluorophenyl)piperidine-1-carbonyl]-4-[2-methyl-3-(trifluoromethyl)phenylamino]pyridine-2-sulfonamide] | ≥ 50
15 | Cc1ccc(F)c(Nc2cc(S(N)(=O)=O)ncc2C(=O)N2CCC(c3ccc(F)cc3)CC2)c1 [Compound 68, 4-(2-fluoro-5-methylphenylamino)-5-[4-(4-fluorophenyl)piperidine-1-carbonyl]pyridine-2-sulfonamide] | ≥ 50
16 | Cc1ccc(Cl)cc1Nc1c(C(=O)N2CCC3(CC2)COc2ccccc23)cnc(S(N)(=O)=O)c1Cl [Compound 323, 3-chloro-4-(5-chloro-2-methylphenylamino)-5-(2H-spiro[benzofuran-3,4′-piperidin]-1′-ylcarbonyl)pyridine-2-sulfonamide] | ≥ 50
17 | Cc1cc(F)ccc1Nc1cc(S(=O)(=O)NCC#N)ncc1C(=O)N1CCC(c2ccc(F)cc2)CC1 [Compound 135, N-(cyanomethyl)-4-(4-fluoro-2-methylphenylamino)-5-[4-(4-fluorophenyl)piperidine-1-carbonyl]pyridine-2-sulfonamide] | ≥ 50
18 | N#Cc1ccc(C(F)(F)F)cc1Nc1c(C(=O)N2CCC(c3ccc(F)cc3)CC2)cnc(S(N)(=O)=O)c1Cl [Compound 257, 3-chloro-4-[2-cyano-5-(trifluoromethyl)phenylamino]-5-[4-(4-fluorophenyl)piperidine-1-carbonyl]pyridine-2-sulfonamide] | ≥ 50
19 | NS(=O)(=O)c1ncc(C(=O)N2CCC(c3ccc(F)cc3)CC2)c(NCc2ccccc2)c1Cl [Compound 44, 4-(benzylamino)-3-chloro-5-[4-(4-fluorophenyl)piperidine-1-carbonyl]pyridine-2-sulfonamide] | ≥ 50
20 | Cc1cc(S(C)(=O)=O)ccc1Nc1c(C(=O)N2CCC(c3ccc(F)cc3)CC2)cnc(S(N)(=O)=O)c1Cl [Compound 329, 3-chloro-5-[4-(4-fluorophenyl)piperidine-1-carbonyl]-4-[2-methyl-4-(methylsulfonyl)phenylamino]pyridine-2-sulfonamide] | ≥ 50
21 | COc1ccc(Nc2cc(S(N)(=O)=O)ncc2C(=O)N2CCC(c3ccc(F)cc3)CC2)c(C)c1 [Compound 78, 5-[4-(4-fluorophenyl)piperidine-1-carbonyl]-4-(4-methoxy-2-methylphenylamino)pyridine-2-sulfonamide] | ≥ 50
22 | Cc1c(S(=O)(=O)Nc2ccon2)ncc(C(=O)N2CCC(c3ccc(F)cc3)CC2)c1Nc1cc(Cl)ccc1Cl [Compound 281, 4-(2,5-dichlorophenylamino)-5-[4-(4-fluorophenyl)piperidine-1-carbonyl]-N-(isoxazol-3-yl)-3-methylpyridine-2-sulfonamide] | ≥ 50
23 | CCc1c(S(=O)(=O)Nc2ccon2)ncc(C(=O)N2CCC(c3ccc(F)cc3)CC2)c1Nc1ccccc1C [Compound 287, 3-ethyl-5-[4-(4-fluorophenyl)piperidine-1-carbonyl]-N-(isoxazol-3-yl)-4-(o-tolylamino)pyridine-2-sulfonamide] | ≥ 50
24 | Cc1cc(F)ccc1Nc1c(C(=O)N2CCC(c3ccc(F)cc3)CC2)cnc(S(=O)(=O)Nc2cc(C(C)(C)C)on2)c1Cl [Compound 42, N-(5-tert-butylisoxazol-3-yl)-3-chloro-4-(4-fluoro-2-methylphenylamino)-5-[4-(4-fluorophenyl)piperidine-1-carbonyl]pyridine-2-sulfonamide] | ≥ 50
25 | Cc1cc(F)ccc1Nc1cc(S(=O)(=O)Nc2ncc(Br)cn2)ncc1C(=O)N1CCC(c2ccc(F)cc2)CC1 [Compound 147, N-(5-bromopyrimidin-2-yl)-4-(4-fluoro-2-methylphenylamino)-5-[4-(4-fluorophenyl)piperidine-1-carbonyl]pyridine-2-sulfonamide] | ≥ 50
26 | NS(=O)(=O)c1ncc(C(=O)N2CC(c3ccc(F)cc3)C2)c(NC2(c3ccccc3)CC2)c1Cl [Compound 330, 3-chloro-5-[3-(4-fluorophenyl)azetidine-1-carbonyl]-4-(1-phenylcyclopropylamino)pyridine-2-sulfonamide] | ≥ 50
27 | Cc1cccc(Nc2c(C(=O)N3CCC(c4ccc(F)cc4)CC3)cnc(S(=O)(=O)Nc3cc(C)ns3)c2C)c1 [Compound 276, 5-[4-(4-fluorophenyl)piperidine-1-carbonyl]-3-methyl-N-(3-methylisothiazol-5-yl)-4-(m-tolylamino)pyridine-2-sulfonamide] | ≥ 50
28 | Cc1cc(F)ccc1Nc1c(C(=O)N2CCC(c3ccc(F)cc3)CC2)cnc(S(N)(=O)=NC(=O)c2ccccc2)c1Cl (stereo not shown) [Compound 194, 3-chloro-4-(4-fluoro-2-methylphenylamino)-5-[4-(4-fluorophenyl)piperidine-1-carbonyl]-N′-benzoylpyridine-2-sulfonimidamide] | ≥ 50
